Data as given in patent publication EP0777471B1, “INHIBITION OF LEUKOTRIENE BIOSYNTHESIS WITH UREA DERIVATIVES” (MINNESOTA MINING AND MANUFACTURING COMPANY, priority 1994, dated 1996).
Values joined by “and” are separate entries in the source; they are usually repeats but may differ in a detail not shown here. Equal entries are not always repeated. Where two headings read alike, the source gives them in different places.

Legend:
[1] = test system: production of Leukotriene C4 in mouse peritoneal macrophages; assay: In vitro mouse peritoneal macrophage Leukotriene C4 inhibition (zymosan-stimulated, LTC4 radioimmunoassay); format: cell-based; conditions: Zymosan 50 µg/mL
Method in brief: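 Adherent peritoneal macrophages from female CD-1 mice were preincubated 15 minutes at 37°C with compound (10, 1 and 0.1 µM, duplicate; DMSO). They were then stimulated with 50 µg/mL zymosan for 1 to 2 hours. Leukotriene C4 released into the medium was measured by radioimmunoassay.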

[2] = test system: production of Leukotriene B4 (LTB4); assay: Dog ex vivo Leukotriene B4 inhibition (oral dosing, blood challenged with calcium ionophore); format: in vivo, beagle dogs; conditions: each entry one dog, negative = stimulation of LTB4 production; for % Inhibition 1 hour / % Inhibition 2 hour / % Inhibition 4 hour / % Inhibition 6 hour: 5 mg/Kg; for inhibition at 5 mg/kg: Canis lupus familiaris, po
Method in brief: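 Beagle dogs (~10 kg) given compound orally by gavage in PEG 400 at 5 mg/kg; jugular blood drawn pre-dose and at selected post-dose times. Blood challenged with calcium ionophore 30 min at 37°C, plasma LTB4 measured by radioimmunoassay; % inhibition from post-dose versus pre-dose LTB4, one dog per value.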

[3] = 1 h, 1 hour post dose, read-out: % Inhibition 1 hour
[4] = 2 h, 2 hour post dose, read-out: % Inhibition 2 hour
[5] = 4 h, 4 hour post dose, read-out: % Inhibition 4 hour
[6] = 6 h, 6 hour post dose, read-out: % Inhibition 6 hour

Compound	IC50 [1]	% Inhibition 1 hour ([2]; 1 hour post dose)	% Inhibition 2 hour ([2]; 2 hour post dose)	% Inhibition 4 hour ([2]; 4 hour post dose)	% Inhibition 6 hour ([2]; 6 hour post dose)	inhibition at 5 mg/kg [2, 3]	inhibition at 5 mg/kg [2, 4]	inhibition at 5 mg/kg [2, 5]	inhibition at 5 mg/kg [2, 6]
CC(C)CCN(O)C(=O)Nc1ccccc1 [Compound 44, 1-hydroxy-1-(3-methylbutyl)-3-phenylurea]	< 1 µM	80% and 52%	11% and 5%	-19% and 12%	-19% and 30%	–	–	–	–
CC(C)CN(O)C(=O)Nc1ccccc1 [Compound 54, 1-Hydroxy-1-(2-methylpropyl)-3-phenylurea]	1.3 µM	–	–	–	–	99%	97%	33%	43%
CC(C)N(O)C(=O)Nc1ccccc1F [Compound 20, 3-(2-fluorophenyl)-1-hydroxy-1-(1-methylethyl)urea]	0.2 µM	–	–	64%	13%	100%	100%	57%	17%
COc1ccc(NC(=O)N(O)C(C)C)cc1 [Compound 23, 1-hydroxy-3-(4-methoxyphenyl)-1-(1-methylethyl)urea]	0.2 µM	–	–	84% and 82% and 59%	15% and 80% and 98% and 56%	100%	99%	–	–
Cc1ccccc1NC(=O)N(O)C(C)C [Compound 25, 1-hydroxy-1-(1-methylethyl)-3-(2-methylphenyl)urea]	0.6 µM	98%	57%	-45% and -78%	9%	100%	51%	–	7%
CC(C)N(O)C(=O)Nc1ccccc1 [Compound 17, 1-hydroxy-1-(1-methylethyl)-3-phenylurea]	0.6 µM	–	–	70%	64% and 43%	100%	98%	–	–
CC(C)N(O)C(=O)Nc1ccccc1Cl [Compound 24, 3-(2-chlorophenyl)-1-hydroxy-1-(1-methylethyl)urea]	0.2 µM	100%	84%	14%	-21% and -24%	99%	73%	7%	–
CN(O)C(=O)Nc1cccc(S(C)(=O)=O)c1 [Compound 59, 1-Hydroxy-1-methyl-3-[3-(methylsulfonyl)phenyl]urea]	0.3 µM	–	–	83% and 75% and 78%	37% and 55% and 93% and 76%	100%	99%	–	–
Cc1cccc(NC(=O)N(O)C(C)C)c1 [Compound 21, 1-hydroxy-1-(1-methylethyl)-3-(3-methylphenyl)urea]	0.1 µM	–	88%	0% and -37%	24% and -8%	100%	95%	–	–
CN(O)C(=O)Nc1cccc([N+](=O)[O-])c1 [Compound 9, 1-hydroxy-1-methyl-3-(3-nitrophenyl)urea]	0.7 µM	–	34% and 83%	18%	54%	100%	–	33%	56%

Now from value to compound, other results behind:

IC50 [1]	Compound	% Inhibition 1 hour ([2]; 1 hour post dose)	% Inhibition 2 hour ([2]; 2 hour post dose)	% Inhibition 4 hour ([2]; 4 hour post dose)	% Inhibition 6 hour ([2]; 6 hour post dose)	inhibition at 5 mg/kg [2, 3]	inhibition at 5 mg/kg [2, 4]	inhibition at 5 mg/kg [2, 5]	inhibition at 5 mg/kg [2, 6]
0.8 µM	CC(C)N(O)C(=O)Nc1ccc(F)cc1 [Compound 18, 3-(4-fluorophenyl)-1-hydroxy-1-(1-methylethyl)urea]	–	–	57%	46% and -12%	100%	100%	49%	–
0.4 µM	CN(O)C(=O)Nc1cccc(F)c1 [Compound 8, 3-(3-fluorophenyl)-1-hydroxy-1-methylurea]	–	–	27% and 11%	9% and -32%	100%	92%	–	–
< 1 µM	CN(O)C(=O)Nc1ccccc1 [Compound 10, 1-hydroxy-1-methyl-3-phenylurea]	–	–	34%	42%	100%	100%	49%	52%
< 1 µM	CC(C)N(O)C(=O)Nc1ccc(Br)cc1 [Compound 19, 3-(4-bromophenyl)-1-hydroxy-1-(1-methylethyl)urea]	–	–	11% and 74%	29% and 65%	100%	84%	–	–
< 1 µM	CSc1ccc(NC(=O)N(C)O)cc1 [Compound 1, 1-Hydroxy-1-methyl-3-[4-(methylthio)phenyl]urea]	–	–	–	95%	100%	100%	100%	93%
< 0.1 µM	CN(O)C(=O)Nc1cccc(Br)c1 [Compound 6, 3-(3-bromophenyl)-1-hydroxy-1-methylurea]	100%	11% and 62%	-36% and 27%	-52% and 19%	86%	–	–	–
0.2 µM	COc1cccc(NC(=O)N(C)O)c1 [Compound 5, 1-hydroxy-3-(3-methoxyphenyl)-1-methylurea]	–	75%	99% and 44%	20% and 50%	100%	–	–	–
< 1 µM	CSc1cccc(NC(=O)N(O)C(C)C)c1 [Compound 16, 1-hydroxy-1-(1-methylethyl)-3-[3-(methylthio)phenyl]urea]	–	–	-8% and -18% and -14% and -80%	-39% and -24% and -186%	100%	97%	–	–
< 1 µM	Cc1cccc(NC(=O)N(C)O)c1 [Compound 7, 1-hydroxy-1-methyl-3-(3-methylphenyl)urea]	–	99%	56%	-21% and 48%	100%	100%	70%	–
